Assay results from paper PMC9833666, “Designing and identifying β-hairpin peptide macrocycles with antibiotic potential” (Science Advances, 2023).
Where two headings read alike, the source gives them in different places. Bridge positions count the residues as written; N and C are the ends. Peptide text beside a SMILES is read from it.

Columns and labels:
[1] = tested on: Acinetobacter baumannii AB5075; conditions: for AB5075 MIC FBS: 100% fetal bovine serum; for AB5075 MIC MH: Mueller-Hinton
[2] = tested on: Single-donor human red blood cells; test: Hemolysis assay; assay type: cell-based; conditions: hemolysis at 128 µg/ml, fold change relative to SySA-5
Method in brief: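 Peptides at 300 μg/ml (SySA library) or 128 μg/ml (SySA-5 optimization library) were incubated in triplicate with washed single-donor RBCs (1 × 10^9 cells/ml) for 3 h at 37 °C. Supernatant A540 was background-normalized to PBS and expressed relative to 1% Triton X-100 (100% hemolysis).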

Row | Structure (SMILES) | AB5075 MIC FBS ([1]; replicate 1) | AB5075 MIC FBS ([1]; replicate 2) | AB5075 MIC FBS ([1]; replicate 3) | AB5075 MIC MH ([1]; replicate 1) | AB5075 MIC MH ([1]; replicate 2) | AB5075 MIC MH ([1]; replicate 3) | Fold Change Hemolysis [2]
1 | CC(C)C[C@@H]1NC(=O)[C@H](CO)NC(=O)[C@H](C(C)C)NC(=O)[C@H](CCCCN)NC(=O)[C@H](C(C)C)NC(=O)[C@@H]2CSSC[C@H](NC(=O)[C@H](CC(C)C)NC(=O)[C@H](CCCNC(=N)N)NC(=O)[C@H](C(C)C)NC(=O)[C@H](CCCNC(=N)N)NC(=O)[C@@H](N)CSSC[C@@H](C(=O)O)NC(=O)[C@H](CCCNC(=N)N)NC1=O)C(=O)N[C@@H](CC(N)=O)C(=O)N[C@@H](CCCNC(=N)N)C(=O)N[C@@H](CCCNC(=N)N)C(=O)N[C@@H](CCCNC(=N)N)C(=O)N2 [SySA-5.8] (H-CRVRLCNRRRCVKVSLRC-OH; disulfide 1-18, 6-11 (inferred); N-terminus and C-terminus assumed) | >128 µg/mL | >128 µg/mL | >128 µg/mL | 8 µg/mL | 8 µg/mL | 8 µg/mL | 0.8
2 | CC(C)C[C@@H]1NC(=O)[C@H](CCCNC(=N)N)NC(=O)[C@H](C(C)C)NC(=O)[C@@H]2CSSC[C@H](NC(=O)[C@H](CC(C)C)NC(=O)[C@H](CCCNC(=N)N)NC(=O)[C@H](C(C)C)NC(=O)[C@H](CCCNC(=N)N)NC(=O)[C@H](CC(C)C)NC(=O)[C@@H](N)CSSC[C@@H](C(=O)O)NC(=O)[C@H](C(C)C)NC(=O)[C@H](CCCNC(=N)N)NC1=O)C(=O)N[C@@H](CCCNC(=N)N)C(=O)N[C@@H](CCCNC(=N)N)C(=O)N[C@@H](CCCNC(=N)N)C(=O)N[C@@H](CCCNC(=N)N)C(=O)N2 [SySA-5.14] (H-CLRVRLCRRRRCVRLRVC-OH; disulfide 1-18, 7-12 (inferred); N-terminus and C-terminus assumed) | 64 µg/mL | 64 µg/mL | 64 µg/mL | 8 µg/mL | 4 µg/mL | 4 µg/mL | 5.6
3 | CC(C)C[C@@H]1NC(=O)[C@H](CCCNC(=N)N)NC(=O)[C@H](C(C)C)NC(=O)[C@@H]2CSSC[C@H](NC(=O)[C@H](CC(C)C)NC(=O)[C@H](CCCNC(=N)N)NC(=O)[C@H](C(C)C)NC(=O)[C@H](CCCNC(=N)N)NC(=O)[C@@H](N)CSSC[C@@H](C(=O)O)NC(=O)[C@H](CCCNC(=N)N)NC1=O)C(=O)N[C@@H](CCCNC(=N)N)C(=O)N[C@@H](CCCNC(=N)N)C(=O)N[C@@H](CCCNC(=N)N)C(=O)N[C@@H](CCCNC(=N)N)C(=O)N2 [SySA-5.26] (H-CRVRLCRRRRCVRLRC-OH; disulfide 1-16, 6-11 (inferred); N-terminus and C-terminus assumed) | >128 µg/mL | >128 µg/mL | >128 µg/mL | 8 µg/mL | 8 µg/mL | 8 µg/mL | 0.8
4 | CC(C)C[C@@H]1NC(=O)[C@H](CCCNC(=N)N)NC(=O)[C@H](C(C)C)NC(=O)[C@H](CCCNC(=N)N)NC(=O)[C@H](CC(C)C)NC(=O)[C@@H](N)CSSC[C@@H](C(=O)O)NC(=O)[C@H](C(C)C)NC(=O)[C@H](CCCNC(=N)N)NC(=O)[C@H](CC(C)C)NC(=O)[C@H](CCCNC(=N)N)NC(=O)[C@H](C(C)C)NC(=O)[C@H](CCCCN)NC(=O)[C@H](C(C)C)NC(=O)[C@@H]2CSSC[C@H](NC1=O)C(=O)N[C@@H](CCCNC(=N)N)C(=O)N[C@@H](CCCNC(=N)N)C(=O)N[C@@H](CCCNC(=N)N)C(=O)N[C@@H](CCCNC(=N)N)C(=O)N2 [SySA-5.4] (H-CLRVRLCRRRRCVKVRLRVC-OH; disulfide 1-20, 7-12 (inferred); N-terminus and C-terminus assumed) | 64 µg/mL | 64 µg/mL | 64 µg/mL | 4 µg/mL | 8 µg/mL | 8 µg/mL | 2.9
